The target in test [1] is kappa opioid receptors (KOR) (Homo sapiens, UniProt P41145). Put plainly: PDSP radioligand binding at KOR. The settings on record: for inhibition at 10 µM: 1.5 h, at 10,000 nM, N = 5, [3H]-U69593 0.83 nM, read-out: Primary Binding %KOR. An excerpt:
(§1) Opioid receptors are a family of inhibitory G-coupled protein receptors where opioids act as the ligand. The kappa opioid receptors (KOR), µ and δ opioid receptors (MOR and DOR), and nociception opioid receptor (NOP) fall under the family of opioids receptors. It has been reported that oxadiazole imidazodiazepines can mediate analgesic and anti-inflammatory properties mediated also by the κ opioid receptor (KOR). The binding at KOR is usually silent. The affinities of the test compounds for KOR, DOR, and MOR were determined using radioligand binding assays at a screening concentration of 10,000 nM in collaboration with the National Institute of Mental Health’s Psychoactive Drug Screening Program (PDSP), as mentioned before. Concentration-dependent experiments were conducted to determine Ki values for the compounds that exceeded more than 50% radioligand displacement in primary binding assays.
(§2) The NIMH PDSP assay protocol book [https://kidbdev.med.unc.edu/databases/PDSP%20Protocols%20II%202013-03-28.pdf accessed on 23 April 2023]. describes the protocols for primary and secondary radio-ligand binding assays. These assays were carried out in a final volume of 125 µL per well in the appropriate binding buffer.
(§3) The binding of a ligand to a receptor, ion channel, or transporter was determined in the […] of 10 µM of the appropriate reference compound. […] Plates were incubated in the dark for 90 min at rt, and the reactions were stopped by vacuum filtration onto 0.3% polyethyleneimine (PEI) soaked 96-well filter mats using a 96-well Filtermateharvester. This was followed by three washes with cold PBS buffer. Radioactivity was then counted on a Microbeta counter. Nonlinear regression was used to analyze the data with N = 6 replicates.

The next test addresses T1, DOR (Homo sapiens, UniProt P41143).
T1 construct: purchased NIMH Psychoactive Drug Screening Program (PDSP)
Put plainly: PDSP radioligand binding at DOR. The conditions noted are these: at 10,000 nM; N = 5; [3H]-DADLE 2.69 nM; read-out: Primary Binding %DOR.
Source text: as §1, §2, §3

A further test concerns the target T2, MOR (Homo sapiens, UniProt P35372).
T2 construct: purchased NIMH Psychoactive Drug Screening Program (PDSP)
The experiment in a line: PDSP radioligand binding at MOR. The conditions noted are these: 1.5 h; at 10,000 nM; N = 5; [3H]-DAMGO 1.20 nM; read-out: Primary Binding %MOR.
Source text: as §1, §2, §3

On the set-up of test [2]: method as in PMID 35266641, PMID 36712569, doi:10.1016/j.euroneuro.2019.09.268. The settings on record: autism, antipsychotic activity, cognitive disorders; cited from earlier work.

Sequence of kappa opioid receptors (KOR) (P41145 whole entry): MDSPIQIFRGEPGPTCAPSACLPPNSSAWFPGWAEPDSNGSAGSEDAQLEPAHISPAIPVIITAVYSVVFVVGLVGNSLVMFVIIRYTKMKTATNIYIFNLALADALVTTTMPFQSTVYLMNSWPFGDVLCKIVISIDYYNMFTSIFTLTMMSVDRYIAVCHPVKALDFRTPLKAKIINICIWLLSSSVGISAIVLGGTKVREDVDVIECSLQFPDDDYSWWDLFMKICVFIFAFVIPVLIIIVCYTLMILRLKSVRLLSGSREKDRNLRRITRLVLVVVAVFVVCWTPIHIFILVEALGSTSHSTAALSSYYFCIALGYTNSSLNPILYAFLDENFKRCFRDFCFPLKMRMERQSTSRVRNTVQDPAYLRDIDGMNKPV
T2 sequence (P35372 whole entry): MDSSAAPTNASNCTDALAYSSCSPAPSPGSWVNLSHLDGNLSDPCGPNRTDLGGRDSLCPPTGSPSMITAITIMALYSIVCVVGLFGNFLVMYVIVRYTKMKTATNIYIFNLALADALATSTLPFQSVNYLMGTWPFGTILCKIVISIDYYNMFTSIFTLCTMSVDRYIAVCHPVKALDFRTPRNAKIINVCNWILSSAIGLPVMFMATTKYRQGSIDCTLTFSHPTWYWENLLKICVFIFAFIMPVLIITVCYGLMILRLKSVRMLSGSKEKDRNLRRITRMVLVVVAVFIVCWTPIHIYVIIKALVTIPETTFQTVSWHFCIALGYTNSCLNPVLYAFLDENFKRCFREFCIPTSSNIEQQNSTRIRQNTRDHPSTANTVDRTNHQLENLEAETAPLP
T1 sequence (P41143 whole entry): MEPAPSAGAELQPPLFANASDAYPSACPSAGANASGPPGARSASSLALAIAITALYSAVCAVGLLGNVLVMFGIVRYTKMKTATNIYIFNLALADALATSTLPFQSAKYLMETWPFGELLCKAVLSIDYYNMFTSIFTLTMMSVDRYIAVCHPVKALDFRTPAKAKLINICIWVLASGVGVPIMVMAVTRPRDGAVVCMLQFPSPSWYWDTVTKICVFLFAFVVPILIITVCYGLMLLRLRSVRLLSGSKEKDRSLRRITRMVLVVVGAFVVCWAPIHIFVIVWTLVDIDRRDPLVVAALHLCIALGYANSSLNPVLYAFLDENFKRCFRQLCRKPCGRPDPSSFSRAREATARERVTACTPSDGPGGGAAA

Usually Ki stands for the equilibrium dissociation constant of an inhibitor or competing ligand from its target. A high value points to weaker binding. For the molecule `C[C@H]1N=C(c2ccccc2F)c2cc(Cl)ccc2-n2cnc(C(=O)N(C)C)c21` [Compound 32, (R)-8-Chloro-6-(2′-fluorophenyl)-N,N,4-trimethyl-4H-benzo[f]imidazo[1,5-a][1,4]diazepine-3-carboxamide], the Ki in test [1] worked out at 731 ± 238 nM. The inhibition at 10 µM came to 81.4 ± 7.52% in test [1], 14.4 ± 7.98% on DOR and 11.2 ± 5.47% on MOR.
For the molecule `C#Cc1ccc2c(c1)C(c1ccccc1F)=N[C@H](C)c1c(C(=O)NC)ncn1-2` [MP-III-022], the “activity in psychiatric disorders” value in test [2] is “active in low doses”.
In test [1], `CCc1noc(-c2ncn3c2[C@@H](C)N=C(c2ccccc2F)c2cc(C4CC4)ccc2-3)n1` [Compound 47] returned a Ki of 248 ± 22.6 nM. Also, the inhibition at 10 µM is 91.3 ± 3.06% in test [1], 67.3 ± 7.84% on DOR and 25.1 ± 12.8% at MOR.
